# According to publication PMC6161602, “Synthesis and characterisation of (Z)-styrylbenzene derivatives as potential selective anticancer agents” (Journal of Enzyme Inhibition and Medicinal Chemistry, 2018):
# Legend:
# Assay type in all cases: cell-based, human
# [1] = tested on: MCF-10A normal breast cell; assay: MTT cell growth inhibition assay, MCF-10A (normal); conditions: Homo sapiens, 48 h incubation, MCF-10A normal cells
# Source text: (§1) All human cell lines were used in this study. MGC-803 late-stage differentiation gastric cancer cell, A549 lung cancer cell, HepG2 hepatoma cell, AGS gastric cancer cell, BEL-7402 liver cancer cell, HCT-116 colorectal cancer cell, HeLa cervical cancer cell, SGC-7901 early differentiation gastric cancer cell, L-02 normal liver cell, MCF-7 breast cancer cell, and MCF-10A normal breast cell were initially purchased from American Type Culture Collection (ATCC, Manassas, VA, USA). RPMI-1640 media, Dulbecco’s modified Eagle’s medium (DMEM), and foetal bovine serum (FBS) were provided from Gibco Company (Grand Island, NY, USA). The cells were maintained in DMEM or RPMI-1640, supplemented with 10% FBS, 100 IU/mL penicillin and […] (Grand Island, NY, USA), and at 37 °C in a humidified atmosphere containing 5% CO2.
# (§2) Cells were plated in 96-well plates at a density of 30–40% to ensure exponential growth throughout the experimental period, and then allowed to adhere for 1 day[21]. Next, the cells were treated with four serial concentrations (1, 10, 50, and 100 µM) of each compound. Taxol, CA-4, and CA-4P (phosphorylated form of CA-4) were used as positive controls. After 48 h incubation, MTT solution was added to each well at a final concentration of 2 mg/mL, and incubated for an additional 4 h. Next, the MTT solution was removed and 150 µL of dimethyl sulphoxide (DMSO)/well was added (Sigma-Aldrich, St Louis, MO, USA). The plates were shaken vigorously at RT to ensure complete solubilisation, and absorption at 492 nm was determined.
# (§3) According to standard protocol, preliminary in vitro anti-proliferative activities of the synthesised compounds were evaluated by MTT assay, using nine human cancer cell lines (MGC-803, A549, HepG2, AGS, BEL-7402, HCT116, HeLa, SGC-7901, and MCF-7) and two normal human cell lines (L-02 and MCF-10A), and compared with those of CA-4, CA-4P, and taxol.
# BEL-7402 cells = assay: Analysis of apoptosis by flow cytometry (Annexin V-FITC/PI); conditions: BEL-7402, 0.1 µM, 12 h; vehicle 4.7%
# Procedure: Apoptosis was detected using an apoptosis detection kit. BEL-7402 cells were plated in 6-well plates (5.0 × 10^5 cells/well) and incubated at 37 °C overnight. Exponentially growing cells were then incubated with 6h at either 0.01 or 0.1 µM, or taxol at 0.1 µM. Vehicle group was treated with 0.1% DMSO. Following 12 h of incubation, cells were analysed for apoptosis as previously described, using a FACSCalibur flow cytometer with Cell Quest software (Becton-Dickinson, Franklin Lakes, NJ, USA).
# A549 lung cancer cell = assay: MTT cell growth inhibition assay, A549
# Source text: as §1, §2, §3
# [2] = tested on: SGC-7901 early differentiation gastric cancer cell; assay: MTT cell growth inhibition assay, SGC-7901; conditions: Homo sapiens, 48 h incubation
# Source text: as §1, §2, §3
# cyclin A = assay: Western blotting, cyclin A; conditions: BEL-7402, 12 h, immunoblot, dose-dependent
# Procedure: BEL-7402 cells were harvested in logarithmic growth phase and the adherent and floating cells were collected after 12 h of drug treatment. The collected cells were resuspended in cold RIPA buffer (100 mM NaCl, 100 mM Tris (pH7.4), 10% Triton X-100, 1 mM PMSF, pH7.5) with 0.1 µM leupetin protease inhibitor as well as 1 µg/mL pepstatin and cracked on ice for 30 min. Then according to the reference to did immunoblotting assay.
# L-02 normal liver cell = assay: MTT cell growth inhibition assay, L-02 (normal); conditions: Homo sapiens, 48 h incubation, L-02 normal cells
# Source text: as §1, §2, §3
compound,measurement,setting,value
"COc1cc(/C(C#N)=C/c2ccc(C)cc2)cc(OC)c1OC [Compound 6h, (Z)-3-(p-Tolyl)-2-(3,4,5-trimethoxyphenyl)acrylonitrile]",IC50,[1],9.45 ± 5.25 µM
same,total apoptotic cells (early + late apoptotic cells),BEL-7402 cells,10.2%
same,IC50,"A549 lung cancer cell; Homo sapiens, MTT, 48 h incubation, A549",530 ± 23 nM
same,SI IC50 (L-02/A549),"A549 lung cancer cell; selectivity index, IC50 (L-02)/IC50 (A549)",>188.6
same,IC50,[2],> 100 µM
same,expression of cyclin A compared with the vehicle group,cyclin A,lower expression
same,IC50,L-02 normal liver cell,> 100 µM
